Results: EP0273199A2, “Uses of 3,4-diphenyl piperidine derivatives or medicines, 3,4-diphenyl piperidine derivatives, and process for their preparation” (LABORATOIRES HOECHST S.A., priority 1986, dated 1988)
Like-named read-outs stand apart in the source and are kept apart here.

How the values were obtained:
[1] = test system: durch Reserpin induzierten Hypothermie; assay: Antireserpine activity (reserpine-induced hypothermia); format: in vivo, Maus; conditions: ip
Protocol: Zur Zeit 0 erhalten die Mäuse intraperitoneal Reserpin (2,5 mg/kg).
4 Stunden danach, wenn die Hypothermie genügend stark erscheint (30 bis 33°C), verabreicht man die verschiedenen zu untersuchenden Verbindungen i.p. oder p.o. Alle 30 Minuten über einen Zeitraum von 2 Stunden mißt man die Rektaltemperatur mit einer auf konstante Tiefe eingeführten, ein Thermoelement tragenden Sonde. Die Rektaltemperatur der mit verschiedenen erfindungsgemäßen Verbindungen behandelten Tiere wird mit der Temperatur einer Kontrollgruppe verglichen, die destilliertes Wasser auf die gleiche Weise wie die untersuchten Verbindungen erhält.
Die Akinesie (fehlende Bewegungen) und Ptose (Öffnungsgrad des Augenlids von 0 bis 4 nach Rubin u.a 1957) werden ebenfalls alle 30 Minuten über einen Zeitraum von 2 Stunden bewertet.
Die eine antidepressive Aktivität besitzenden Produkte wirken der durch Reserpin induzierten Hypothermie entgegen. Für jede Dosis der verabreichten Verbindung berechnet man die prozentuale Hemmung der Hypothermie.

Apomorphin 16 mg/kg = assay: Antiapomorphine activity (apomorphine 16 mg/kg s.c., hypothermia); format: in vivo, Maus
Protocol: Zur Zeit 0 nach Ausgleich der Reaktaltemperaturen werden die Mäuse (6 pro Gruppe) in deren Beobachtung gestattende Einzelkäfige (11 x 3,5 x 4 cm) eingeetzt. 30 Minuten nach i.p. bzw. p.o. Verabreichung der Testsubstanz erhalten sie Apomorphin subkutan in einer Dosis von 16 mg/kg. Die Rektaltemperatur wird 30 Minuten nach dem Apomorphin gemessen. Die Kontrolltiere erhalten destilliertes Wasser statt der zu untersuchenden Verbindungen. Die bei diesen Kontrolltieren, die 16 mg/kg Apomorphin erhalten haben, beobachtete Hypothermie liegt im Durchschnitt bei 33°C. Für jede Verbindungsdosis berechnet man die prozentuale Hemmung der Hypothermie.

[2] = test system: durch Oxotremorin induzierten Hypothermie; assay: Antioxotremorine activity (oxotremorine-induced hypothermia); format: in vivo, Maus; conditions: ip, read-out: Erste wirksame Dosis Oxotremorin
Protocol: Nach Ausgleich der Rektaltemperaturen erhalten Mäuse (6 pro Gruppe) entweder destillietes Wasser oder die verschiedenen zu untersuchenden Verbindungen i.p.
30 Minuten danach verabreicht man intraperitoneal Oxotremorin in einer Dosis von 0,5 mg/kg.
Die Mäuse werden dan beobachtet: Tremor wird je nach der Intensität von 0 bis 3 bewertet, und die Akinesie wird alle 10 Minuten über einen Zeitraum von 30 Minuten auf Vorliegen oder Fehlen bestimmt.
Außerdem beobachtet man 2 Stunden lang das Erscheinen peripherer Symptome (Tränen, Darmentleerung). Die Rektaltemperatur wird alle 30 Minuten über eine Zeitraum von 2 Stunden nach der Verabreichung des Oxotremorins gemessen.
Die eine antidepressive Aktivität besitzenden Produkte wirken der durch Oxotremorin induzierten Hypothermie entgegen.
Für jede Dosis der Verbindung berechnet man die prozentuale Hemmung der Hypothermie.

Motoraktivität = assay: Actimetry (motor activity, photocell actimeter); format: in vivo, Maus; conditions: for Aktimetrie: mouse, direction of change of motor activity
Description: Die Motoraktivität wird mittels Photozellenaktimetern bestimmt (Boissier und Simon, Arch. Int. Pharmacodyn. 1965, 158, 212-221).
Die Mäuse (10 oder ein Vielfaches von 10 pro Gruppe) werden unmittelbar nach i.p. Verabreichung der zu untersuchenden Verbindungen in das Aktimeter eingesetzt. Die Motoraktivität wird danach bis zur 60. Minute gemessen. De Zähler werden nach 30 Minuten abgelesen und dann auf 0 zurückgestellt und im Verlauf von 30 Minuten alle 10 Minuten abgelesen.
Die Beweglichkeit der mit den verschiedenen Verbindungen behandelten Tiere wird mit derjenigen einer destilliertes Wasser erhaltenden Kontrollgruppe verglichen.
Die eine psychostimulierende Aktivität besitzenden Produkte verursachen eine Zunahme der Beweglichkeit.

stereotypen Bewegungen = assay: Search for stereotyped movements; format: in vivo, Ratte; conditions: rat
Description: Suche nach stereotypen Bewegungen an der Ratte
Unmittelbar nach i.p. oder p.o. Verabreichung der zu unteruchenden Verbindungen werden die Tiere (6 Ratten pro Gruppe) in 20 x 10 x 10 cm große, mit einem Edelstahldeckel mit Löchern von 1 cm Durchmesser versehene Einzelkäfige aus durchsichtigem Kunststoff eingesetzt. Die stereotypen Bewegungen (Bewegungen der Mundhöhle, Schnüffeln, Lecken oder Kauen) werden nach der von Simon und Chermat (J. Pharmacol. Paris, 1972, 3, 235-238) beschriebenen Methode alle 10 Minuten von 0 bis 3 bewertet, bis sie bei allen Tieren verschwunden sind.

Maus = assay: Tail suspension test; format: in vivo; conditions: ip
Description: Schwanzaufhängungstest an der Maus wie von Stéru u.a. beschrieben (Psychopharmacology 85, 367-370, 1985).
Die Substanzen werden intraperitoneal 30 Minuten vor dem Test verabreicht und die Tiese isoliert (10 Mäuse pro Dosis).
Man bewertet die Dauer der Unbeweglichkeit, ausgedrückt in Sekunden über die 6 Minuten des Tests. Man untersucht auf eine Verkürzung dieser Unbeweglichkeitszeit.

[3] = test system: Apomorphin 1 mg.kg^-1 s.c.; assay: Apomorphine 1 mg/kg s.c. antagonism (no method given); format: in vivo; conditions: ip, Tabelle Ib; read-out: Erste wirksame Dosis Apomorphin 1 mg.kg^-1 s.c.
Toxizität des Yohimbins = assay: Potentiation of yohimbine toxicity; format: in vivo, Maus; conditions: only or lowest value of the cell
Protocol: Wirkung auf die Toxizität des Yohimbins
Zur Zeit 0 erhalten die Mäuse entweder destilliertes Wasser oder verschiedene zu untersuchende Verbindungen i.p. 30 Minuten danach verabreicht man ihnen subkutan eine infratoxische Dosis von 25 mg/kg Yohimbinchlorhydrat.
Die Mortalität wird jede Stunde über einen Zeitraum von 4 Stunden verfolgt und dann nach 24 Stunden notiert.
Die eine antidepressive Aktivität besitzenden Produkte verursachen eine Potenzierung der Toxizität des Yohimbins.

[4] = Mus musculus, read-out: Erste wirksame Dosis Reserpin, mouse, i.p., only or lowest value of the cell
[5] = Mus musculus, ip, read-out: Erste wirksame Dosis Apomorphin 16 mg/kg, mouse, i.p., only or lowest value of the cell

SMILES	minimal effective dose ([1]; Tabelle Ib, read-out: Erste wirksame Dosis Reserpin) [mg/kg]	minimal effective dose ([1]; mouse, i.p., only or lowest value of the cell, read-out: Erste wirksame Dosis Reserpin) [mg/kg]	minimal effective dose (Apomorphin 16 mg/kg; ip, Tabelle Ib, read-out: Erste wirksame Dosis Apomorphin 16 mg.kg^-1 s.c.) [mg/kg]	minimal effective dose (Apomorphin 16 mg/kg; ip, mouse, i.p., only or lowest value of the cell, read-out: Erste wirksame Dosis Apomorphin 16 mg/kg) [mg/kg]	minimal effective dose (Apomorphin 16 mg/kg; mouse, further value in the same cell, route not stated (lowest = i.p.; p.o. also tested), read-out: Erste wirksame Dosis Apomorphin 16 mg/kg) [mg/kg]	minimal effective dose ([2]; Tabelle Ib) [mg/kg]	minimal effective dose ([2]; mouse, i.p.) [mg/kg]	Motilität (Motoraktivität; i.p., direction of change, Tabelle Ib)	minimal effective dose (Motoraktivität; ip, Tabelle Ib, read-out: Erste wirksame Dosis Motilität) [mg/kg]	Aktimetrie (Motoraktivität)	Stereotype Bewegung (stereotypen Bewegungen; 64 mg/kg i.p.)	minimal effective dose (Maus; Tabelle Ib, read-out: Erste wirksame Dosis T.S.T. Maus) [mg/kg]	minimal effective dose (Maus; mouse, i.p., footnote of Tabelle 1, read-out: tail suspension test= positiv ab) [mg/kg]	minimal effective dose [3] [mg/kg]	minimal effective dose [1, 4] [mg/kg]	minimal effective dose (Apomorphin 16 mg/kg; [5]) [mg/kg]	minimal effective dose ([2]; Mus musculus) [mg/kg]	Erste wirksame Dosis Yohimbin (Toxizität des Yohimbins; mouse, i.p.) [mg/kg]	Stereotype Bewegung (stereotypen Bewegungen; 64 mg/kg p.o.)	minimal effective dose (Toxizität des Yohimbins; Mus musculus, ip, read-out: Erste wirksame Dosis Yohimbin, mouse, i.p.) [mg/kg]
FC(F)(F)c1ccc([C@@H]2CCNC[C@H]2c2ccccc2)cc1 (racemic) [Beispiel 3, trans-3-Phenyl-4-(4-trifluormethylphenyl)-piperidin-chlorhydrat]	1	1	2	2	4	8	8	↘	32	↘	0(64i.p.)	4	≥ 4	2	–	–	–	–	–	–
c1ccc([C@@H]2CCNC[C@H]2c2ccccc2)cc1 (relative stereo) [21 (Base), trans-3,4-Diphenylpiperidin]	–	–	–	–	–	–	–	–	–	–	–	–	–	–	4	4	4	4	0(64p.o.)	–
Clc1ccc(C2CCNCC2c2ccccc2)cc1 (stereo not drawn) [Beispiel 12, cis-4-(4-Chlorphenyl)-3-phenylpiperidin]	–	–	–	–	–	–	–	–	–	↘ =	0(64i.p.)	–	–	–	4	2	16	–	–	16
